From US20240132513A1, “BENZAZEPINE DERIVATIVES, COMPOSITIONS, AND METHODS FOR TREATING COGNITIVE IMPAIRMENT” (AGENEBIO, INC., priority 2022, published 2024)

Each compound was assayed against α5β3γ2 GABAA R (Homo sapiens, UniProt P18507+P31644) (assay: Binding activity on GABAA R: inhibition of [3H]Ro15-1788 binding, α5 containing receptor). Settings: not given.
Sequence of α5β3γ2 GABAA R (P31644 32-462): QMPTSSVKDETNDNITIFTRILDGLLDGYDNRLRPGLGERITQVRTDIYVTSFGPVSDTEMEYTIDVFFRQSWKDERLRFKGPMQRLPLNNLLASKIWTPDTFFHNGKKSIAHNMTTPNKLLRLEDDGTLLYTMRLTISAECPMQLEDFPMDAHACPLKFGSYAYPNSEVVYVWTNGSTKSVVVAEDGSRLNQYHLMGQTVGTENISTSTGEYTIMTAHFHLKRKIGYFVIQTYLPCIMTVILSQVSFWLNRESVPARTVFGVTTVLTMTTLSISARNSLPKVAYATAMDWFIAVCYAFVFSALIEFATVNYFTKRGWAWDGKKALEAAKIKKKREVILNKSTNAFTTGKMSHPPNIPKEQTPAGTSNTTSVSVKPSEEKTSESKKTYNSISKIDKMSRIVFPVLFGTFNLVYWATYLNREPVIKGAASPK
Sequence of α5β3γ2 GABAA R (P28472 26-473 partner): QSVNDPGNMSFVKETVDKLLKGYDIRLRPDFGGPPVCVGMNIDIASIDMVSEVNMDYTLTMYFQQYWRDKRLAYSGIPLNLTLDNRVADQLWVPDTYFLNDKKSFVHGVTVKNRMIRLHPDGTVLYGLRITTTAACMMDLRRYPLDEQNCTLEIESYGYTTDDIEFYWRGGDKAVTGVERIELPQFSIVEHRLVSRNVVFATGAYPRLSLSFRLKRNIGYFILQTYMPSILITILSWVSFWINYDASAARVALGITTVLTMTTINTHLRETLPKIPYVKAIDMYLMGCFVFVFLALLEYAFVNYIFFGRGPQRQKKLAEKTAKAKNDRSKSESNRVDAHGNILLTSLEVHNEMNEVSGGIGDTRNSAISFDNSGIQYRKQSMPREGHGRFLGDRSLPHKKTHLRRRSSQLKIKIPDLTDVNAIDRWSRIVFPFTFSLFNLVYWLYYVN
Sequence of α5β3γ2 GABAA R (P18507 40-475): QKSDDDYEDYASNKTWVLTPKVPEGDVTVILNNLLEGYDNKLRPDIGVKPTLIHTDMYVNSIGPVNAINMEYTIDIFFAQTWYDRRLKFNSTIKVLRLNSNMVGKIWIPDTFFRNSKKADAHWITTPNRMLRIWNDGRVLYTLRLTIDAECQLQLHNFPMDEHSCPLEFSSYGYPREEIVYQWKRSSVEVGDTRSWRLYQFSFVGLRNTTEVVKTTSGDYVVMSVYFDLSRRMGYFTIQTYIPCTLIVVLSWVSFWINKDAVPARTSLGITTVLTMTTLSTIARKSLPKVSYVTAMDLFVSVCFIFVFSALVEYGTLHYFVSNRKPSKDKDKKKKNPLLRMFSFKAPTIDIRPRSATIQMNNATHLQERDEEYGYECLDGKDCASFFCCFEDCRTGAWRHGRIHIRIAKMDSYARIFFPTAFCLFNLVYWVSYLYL
Experimental: Tissue culture and Membrane Preparation: The binding was performed on Ltk cells stably expressing GABAA R: […], α2β3γ2, α3β3γ2 and α5β3γ2 (provided by Merck Co., NJ, USA). Cells were seeded in 100 mm culture plates in DMEM/F12 medium containing 10% serum and antibiotics in 5% CO2 and allowed to grow for 1-2 days. GABAAR expression was then induced by dexamethasone as follows: 0.5 μM for 1 day for α5 containing and 2 μM for 3 days for α1, α2 and α3 containing GABAARs. After induction, cells were collected by scraping into Dulbecco's Phosphate buffered saline (DPBS, pH 7.4, Invitrogen, Carlsbad, CA, USA) and centrifuged at 150×g for 10 min. The pellet was washed twice by re-suspension and centrifugation. The cell pellets from at least 5 different preps were combined, suspended in the binding assay buffer (50 mM KH2PO4; 1 mM EDTA; 0.2 M KCl, pH 7.4) and membranes prepared by sonication (3-5 times, 30 sec) using Branson Sonifier 150 (G. Heinmann, Germany). Protein content was determined using BCA assay (Bio-Rad Labs, Reinach, Switzerland) with Bovine Serum Albumin (Sigma Aldrich, St. Louis, MO, USA) as the standard. Aliquots were prepared and stored at −20° C. for further use in binding assays.
Ligand Binding: Saturation binding curves were obtained by incubating membranes with increasing concentrations (0.01-8 nM) of [^3H]Rol5-1788 (Flumazepil, 75-85 Ci/mmol, PerkinElmer, MA, USA), with nonspecific binding measured in the presence of 10 μM diazepam.
All binding assays were performed for 1 h at 4° C. in assay buffer. The total assay volume was 0.5 ml containing 0.2 mg/ml protein for α5 and 0.4 mg/ml for α1, α2, and α3 containing GABAAR membranes. Incubations were terminated by filtration through GF/B filters using a 24-Cell Harvestor (Brandel, Gaithersburg, MD, USA) followed by 3 washes with ice-cold assay buffer. Filters were transferred to scintillation vials, 5 ml scintillation liquid added, vortex-mixed and kept in dark. Next day, radioactivity was obtained using a scintillation counter (Beckman Coulter, Brea, CA, USA). All assays were performed in triplicate.
Data Analyses: Saturation and inhibition curves were obtained using GraphPad Prism software (GraphPad Software, Inc., CA, USA).
With `CCn1cc2c(n1)-c1cc(Cl)ccc1-n1cnc(C3=N[C@@H](C(C)C)CO3)c1C2` [Compound 180] the Ki was < 100 nM. `Cn1cc2c(n1)-c1cc(Cl)ccc1-n1cnc(C3=NC4(COC4)CO3)c1C2` [Compound 182] was tested, and the Ki was < 100 nM. Work on `COc1ccc2c(c1)-c1c(cnn1C)Cc1c(-c3noc(C(C)(C)OC)n3)ncn1-2` [Compound 186] yielded a Ki of 100 to 1000 nM. In the case of `COc1ccc2c(c1)-c1n[nH]cc1Cc1c(-c3noc(C4(F)CC4)n3)ncn1-2` [Compound 191], the Ki is reported as < 100 nM. With `CCn1cc2c(n1)-c1cc(Cl)ccc1-n1cnc(-c3noc(C(C)(C)OC)n3)c1C2` [Compound 196] the Ki was < 100 nM. For `CC(C)c1noc(-c2ncn3c2Cc2cn(C4CCOC4)nc2-c2cc(Cl)ccc2-3)n1` (stereo not drawn) [Compound 199], the Ki was < 100 nM. With `COc1ccc2c(c1)-c1c(cnn1C)Cc1c(-c3noc(C4(OC)CC4)n3)ncn1-2` [Compound 204] the Ki was < 100 nM. With `Cn1cc2c(n1)-c1cc(Cl)ccc1-n1cnc(-c3cnn(C4CCCO4)c3)c1C2` (stereo not drawn) [Compound 221] the Ki was 100 to 1000 nM. For `FC(F)(F)c1noc(-c2ncn3c2Cc2cn(CC4CCCO4)nc2-c2cc(Cl)ccc2-3)n1` (stereo not drawn) [Compound 227], the Ki was < 100 nM. `CCn1cc2c(n1)-c1cc(OC)ccc1-n1cnc(-c3nc(C(C)(C)OC)no3)c1C2` [Compound 234] was tested, and the Ki was < 100 nM. With `COCc1noc(-c2ncn3c2Cc2cn(C)nc2-c2cc(Cl)ccc2-3)n1` [Compound 235] the Ki was < 100 nM. With `CN(C)Cc1noc(-c2ncn3c2Cc2cn(C)nc2-c2cc(Cl)ccc2-3)n1` [Compound 240] the Ki was < 100 nM. In the case of `CCn1cc2c(n1)-c1cc(OC)ccc1-n1cnc(-c3nc(CN(C)C)no3)c1C2` [Compound 241], the Ki is reported as < 100 nM. `COc1ccc2c(c1)-c1nn(CC3CCOC3)cc1Cc1c(-c3nc(C(F)(F)F)no3)ncn1-2` (stereo not drawn) [Compound 265] was tested, and the Ki was < 100 nM. `COc1ccc2c(c1)-c1nn(C)cc1Cc1c(-c3nc(CN4CCCC4)co3)ncn1-2` [Compound 270] gave a Ki of 100 to 1000 nM. In the case of `COc1ccc2c(c1)-c1nn(C)cc1Cc1c(-c3nc(CN4CCOCC4)co3)ncn1-2` [Compound 271], the Ki is reported as < 100 nM. `COCCOCc1coc(-c2ncn3c2Cc2cn(C)nc2-c2cc(OC)ccc2-3)n1` [Compound 272] was tested, and the Ki was < 100 nM. `COc1ccc2c(c1)-c1nn(C)cc1Cc1c(-c3nc(COC4CCOC4)co3)ncn1-2` (stereo not drawn) [Compound 273] was tested, and the Ki was < 100 nM. In the case of `COCCOCc1coc(-c2ncn3c2Cc2cn(C)nc2-c2cc(Cl)ccc2-3)n1` [Compound 278], the Ki is reported as < 100 nM. In the case of `COc1ccc2c(c1)-c1nn(C)cc1Cc1c(-c3nnc(C4CCOC4)o3)ncn1-2` (stereo not drawn) [Compound 291], the Ki is reported as 100 to 1000 nM. In the case of `CC(C)OCc1nc(-c2ncn3c2Cc2cn(CC4CCCO4)nc2-c2cc(Cl)ccc2-3)no1` (stereo not drawn) [Compound 307], the Ki is reported as < 100 nM. `COCCn1cc2c(n1)-c1cc(OC)ccc1-n1cnc(-c3noc(C(C)(C)OC)n3)c1C2` [Compound 311] was tested, and the Ki was < 100 nM. For `COc1ccc2c(c1)-c1nn(C)cc1Cc1c(-c3noc(C4(C)COC4)n3)ncn1-2` [Compound 317], the Ki was < 100 nM. `COCCn1cc2c(n1)-c1cc(OC)ccc1-n1cnc(-c3noc(C4CCOCC4)n3)c1C2` [Compound 318] was tested, and the Ki was < 100 nM. For `Clc1ccc2c(c1)-c1nn(CC3CCCO3)cc1Cc1c(-c3cnn(CC4CCOCC4)c3)ncn1-2` (stereo not drawn) [Compound 319], the Ki was < 100 nM. With `Clc1ccc2c(c1)-c1nn(CC3CCCO3)cc1Cc1c(-c3cnn(Cc4ccccn4)c3)ncn1-2` (stereo not drawn) [Compound 320] the Ki was < 100 nM. With `Clc1ccc2c(c1)-c1nn(C3CCOC3)cc1Cc1c(-c3cnn(CC4CCOCC4)c3)ncn1-2` (stereo not drawn) [Compound 321] the Ki was < 100 nM. In the case of `COC1(c2nc(-c3ncn4c3Cc3cn(CC5CCCO5)nc3-c3cc(Cl)ccc3-4)no2)CC1` (stereo not drawn) [Compound 322], the Ki is reported as < 100 nM. With `COc1ccc2c(c1)-c1nn(CC3CCCO3)cc1Cc1c(-c3noc(C4(OC)CC4)n3)ncn1-2` (stereo not drawn) [Compound 323] the Ki was < 100 nM. `COc1ccc2c(c1)-c1nn(C)cc1Cc1c(-c3nnc(C4COCCO4)o3)ncn1-2` (stereo not drawn) [Compound 325] was tested, and the Ki was < 100 nM. For `COCc1nnc(-c2ncn3c2Cc2cn(C)nc2-c2cc(OC)ccc2-3)o1` [Compound 326], the Ki was < 100 nM. For `COc1ccc2c(c1)-c1nn(CCOC(F)(F)F)cc1Cc1c(-c3noc(C4CCOCC4)n3)ncn1-2` [Compound 327], the Ki was < 100 nM. For `COc1ccc2c(c1)-c1nn(C)cc1Cc1c(-c3nc(CN4CCOCC4)no3)ncn1-2` [Compound 328], the Ki was < 100 nM. `COc1ccc2c(c1)-c1nn(CCOC(F)(F)F)cc1Cc1c(-c3noc(C4(OC)CC4)n3)ncn1-2` [Compound 330] was tested, and the Ki was < 100 nM. For `COc1ccc2c(c1)-c1nn(CC3COC3)cc1Cc1c(-c3noc(C4(OC)CC4)n3)ncn1-2` [Compound 331], the Ki was < 100 nM. In the case of `COCC(COC)OCc1coc(-c2ncn3c2Cc2cn(C)nc2-c2cc(Cl)ccc2-3)n1` [Compound 332], the Ki is reported as < 100 nM. `COc1ccc2c(c1)-c1nn(CCOC(C)(C)C)cc1Cc1c(-c3noc(C(C)(C)OC)n3)ncn1-2` [Compound 333] was tested, and the Ki was < 100 nM. For `COc1ccc2c(c1)-c1nn(C)cc1Cc1c(-c3nnc(COCC(F)(F)F)o3)ncn1-2` [Compound 334], the Ki was < 100 nM. `COc1ccc2c(c1)-c1nn(C)cc1Cc1c(-c3nc(C(C)(C)OC)no3)ncn1-2` [Compound 335] was tested, and the Ki was < 100 nM. With `COc1cccc(Cn2cc(-c3ncn4c3Cc3cn(C)nc3-c3cc(Cl)ccc3-4)cn2)n1` [Compound 336] the Ki was < 100 nM. `COc1cccc(Cn2cc(-c3ncn4c3Cc3cn(CC5CCCO5)nc3-c3cc(Cl)ccc3-4)cn2)n1` (stereo not drawn) [Compound 337] was tested, and the Ki was < 100 nM. In the case of `COc1cccc(Cn2cc(-c3ncn4c3Cc3cn(C5CCOC5)nc3-c3cc(Cl)ccc3-4)cn2)n1` (stereo not drawn) [Compound 338], the Ki is reported as < 100 nM. In the case of `COCCn1cc2c(n1)-c1cc(OC)ccc1-n1cnc(-c3noc(C4(OC)CC4)n3)c1C2` [Compound 339], the Ki is reported as < 100 nM. With `CCOC(C)(C)c1nc(-c2ncn3c2Cc2cn(C)nc2-c2cc(OC)ccc2-3)no1` [Compound 341] the Ki was < 100 nM. For `COc1ccc2c(c1)-c1nn(CCOC(F)(F)F)cc1Cc1c(-c3noc(C(C)(C)OC)n3)ncn1-2` [Compound 343], the Ki was < 100 nM. For `COc1ccc2c(c1)-c1nn(C)cc1Cc1c(-c3noc(CC(C)(C)OC)n3)ncn1-2` [Compound 344], the Ki was 100 to 1000 nM. For `Cn1cc2c(n1)-c1cc(Cl)ccc1-n1cnc(-c3nc(CN4CCCC4)co3)c1C2` [Compound 345], the Ki was < 100 nM. For `COc1ccc2c(c1)-c1nn(C)cc1Cc1c(-c3noc(CN4CCCC4)n3)ncn1-2` [Compound 347], the Ki was < 100 nM. With `COc1ccc2c(c1)-c1nn(C)cc1Cc1c(-c3noc(CN4CCOCC4)n3)ncn1-2` [Compound 348] the Ki was < 100 nM. For `CCn1cc2c(n1)-c1cc(Cl)ccc1-n1cnc(-c3noc(CN(C)C)n3)c1C2` [Compound 349], the Ki was < 100 nM. With `CCn1cc2c(n1)-c1cc(Cl)ccc1-n1cnc(-c3noc(CN4CCCC4)n3)c1C2` [Compound 350] the Ki was < 100 nM. For `COCc1noc(-c2ncn3c2Cc2cn(CC4CCOC4)nc2-c2cc(Cl)ccc2-3)n1` (stereo not drawn) [Compound 351], the Ki was < 100 nM. With `COc1ccc2c(c1)-c1nn(C)cc1Cc1c(-c3nc(C4(C)CCOCC4)no3)ncn1-2` [Compound 352] the Ki was < 100 nM.

Same assay, conditions: ranges of the column heads; [3H]Ro15-1788, Ltk cell membranes
With `Clc1ccc2c(c1)-c1nn(CC3CCOC3)cc1Cc1c(-c3cnn(Cc4ccccc4)c3)ncn1-2` (stereo not drawn) [Compound 229] the Ki was < 100 nM. In the case of `Cc1ccc(-c2noc(C)c2COc2ccc(C(=O)NC3CCOCC3)nn2)cn1` [Compound 238], the Ki is reported as < 100 nM. `COc1ccc2c(c1)-c1c(cnn1CC1CCOC1)Cc1c(-c3nc(C(C)C)no3)ncn1-2` (stereo not drawn) [Compound 246] was tested, and the Ki was < 100 nM. `COc1ccc2c(c1)-c1nn(C)cc1Cc1c(-c3nc(C4CCOC4)co3)ncn1-2` (stereo not drawn) [Compound 262] was tested, and the Ki was > 1000 nM. With `Clc1ccc2c(c1)-c1nn(C3CCOC3)cc1Cc1c(-c3cnn(Cc4ccccc4)c3)ncn1-2` (stereo not drawn) [Compound 274] the Ki was < 100 nM. `COCc1noc(-c2ncn3c2Cc2cn(CC4COC4)nc2-c2cc(OC)ccc2-3)n1` [Compound 298] was tested, and the Ki was < 100 nM. `COCc1noc(-c2ncn3c2Cc2cn(CC4CCOC4)nc2-c2cc(OC)ccc2-3)n1` (stereo not drawn) [Compound 299] was tested, and the Ki was < 100 nM. In the case of `COc1ccc2c(c1)-c1nn(C)cc1Cc1c(-c3nc(COC4CCOC4)no3)ncn1-2` (stereo not drawn) [Compound 316], the Ki is reported as < 100 nM. `COc1ccc2c(c1)-c1nn(C)cc1Cc1c(-c3noc(C4CCOCC4)n3)ncn1-2` [Compound 324] was tested, and the Ki was < 100 nM. For `COc1ccc2c(c1)-c1c(cnn1C)Cc1c(-c3nc(CN4CCOCC4)no3)ncn1-2` [Compound 329], the Ki was 100 to 1000 nM. With `CCn1cc2c(n1)-c1cc(OC)ccc1-n1cnc(-c3noc(C4(OC)CC4)n3)c1C2` [Compound 340] the Ki was < 100 nM. `COCCc1nc(-c2ncn3c2Cc2cn(C)nc2-c2cc(OC)ccc2-3)no1` [Compound 342] was tested, and the Ki was < 100 nM. For `Cn1cc2c(n1)-c1cc(Cl)ccc1-n1cnc(-c3nc(COC4CCOCC4)co3)c1C2` [Compound 346], the Ki was < 100 nM.
